According to patent publication US10723765B2, “Beta-hairpin peptidomimetics as selective elastase inhibitors” (POLYPHOR AG, priority 2013, dated 2020):
Read-outs that look alike come from different tables or passages of the source. Non-standard residues stand in square brackets, D forms with d. Residues, ends and D or L forms follow the SMILES beside them. *: point of attachment. Gly(octyl) = CCCCCCCC[C@H](N)C(=O)O; hTyr = N[C@@H](CCc1ccc(O)cc1)C(=O)O; AllylGly = C=CC[C@H](N)C(=O)O; NHPhenethyl = c1ccc(CCN*)cc1; hLeu = CC(C)CC[C@H](N)C(=O)O; Nle = CCCC[C@H](N)C(=O)O

How the values were obtained:
Assay type in all cases: biochemical
human proteinase 3 = biological target: T1, human proteinase 3 (Homo sapiens, UniProt P24158); test: Inhibition of human proteinase 3 (Boc-Ala-Ala-Nva-SBzl); conditions: for hNE/hPr3 selectivity: ratio of hPr3 IC50 to hNE IC50
T1 construct: purchased Elastin Products Company, USA
T1 sequence (P24158 28-248): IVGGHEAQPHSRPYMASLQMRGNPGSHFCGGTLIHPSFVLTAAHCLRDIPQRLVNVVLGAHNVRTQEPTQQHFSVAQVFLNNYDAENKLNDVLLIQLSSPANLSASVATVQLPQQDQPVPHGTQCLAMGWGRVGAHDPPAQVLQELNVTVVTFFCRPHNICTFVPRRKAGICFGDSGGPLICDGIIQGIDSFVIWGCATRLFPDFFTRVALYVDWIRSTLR
Protocol: 2.4. Inhibition of Human Proteinase 3
The inactivation of human proteinase 3 (Elastin Products Company, USA) by the peptides of the invention using synthetic tripeptidic substrate Boc-Ala-Ala-Nva-SBzl (Elastin Products Company, USA) was determined as follows:
(§1) The above substrate (1 mM), 4,4′-dithiodipyridine (250 μM) and human proteinase 3 (10 nM) were incubated at 37° C. with serial dilutions of the peptides (0.5% DMSO final) in assay buffer (50 mM Tris, pH7.4, 150 mM NaCl, 0.01% Tween20). The reaction process was followed by monitoring the change in absorbance at 340 nm for 30 minutes. Control assays with the same assay set-up as above, but without peptide, ran linearly. The dose-response data were fitted to the 4-parameter Hill equation providing the IC50 value using Graphpad (Prism 5).

[1] = biological target: T2, porcine pancreatic elastase (Sus scrofa, UniProt P00772); test: Inhibition of porcine pancreatic elastase (MeOSuc-AAA-pNA hydrolysis); conditions: for hNE/PPE selectivity: ratio of PPE IC50 to hNE IC50
T2 construct: purchased Sigma, USA
Protocol: 2.3. Inhibition of Porcine Pancreatic Elastase
The ability of the peptides of the invention to inhibit the hydrolysis activity of porcine pancreatic elastase (Sigma, USA) using the synthetic tripeptidic substrate MeOSuc-AAA-pNA (Bachem, Switzerland) was determined as follows:
as §1, with “mM)” for “mM), 4,4′-dithiodipyridine (250 μM)”, “porcine pancreatic elastase (15” for “proteinase 3 (10”, “pH8, 100” for “pH7.4, 150”, “release of pNA” for “reaction process”, “405” for “340”

[2] = biological target: T3, human neutrophil elastase (Homo sapiens, UniProt P08246); test: Inhibition of human neutrophil elastase (MeOSuc-AAPV-pNA hydrolysis)
T3 construct: purchased Serva Electrophoresis, Germany
T3 sequence (P08246 30-267): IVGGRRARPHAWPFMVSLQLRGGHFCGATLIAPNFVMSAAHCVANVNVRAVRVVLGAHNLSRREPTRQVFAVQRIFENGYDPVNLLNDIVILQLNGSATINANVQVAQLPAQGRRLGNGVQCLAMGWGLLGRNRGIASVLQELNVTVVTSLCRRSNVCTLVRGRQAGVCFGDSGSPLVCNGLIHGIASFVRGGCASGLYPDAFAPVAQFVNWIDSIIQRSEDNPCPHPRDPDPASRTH
Protocol: 2.2. Inhibition of Human Neutrophil Elastase
The ability of the peptides of the invention to inhibit the hydrolysis activity of human neutrophil elastase (Serva Electrophoresis, Germany) using the synthetic tetrapeptidic substrate MeOSuc-AAPV-pNA (Bachem, Switzerland) was determined as follows:
as §1, with “(0.3 mM)” for “(1 mM), 4,4′-dithiodipyridine (250 μM)”, “neutrophil elastase” for “proteinase 3”, “(1%” for “(0.5%”, “pH 8, 300” for “pH7.4, 150”, “release of pNA” for “reaction process”, “405” for “340”

[3] = 10 nM enzyme, 1 mM substrate, 37° C., pH7.4, read-out: Human proteinase 3 (hPr3) IC50
[4] = 15 nM enzyme, 1 mM substrate, 37° C., pH8, read-out: Porcine pancreatic elastase (PPE) IC50
[5] = 10 nM enzyme, 0.3 mM substrate, 37° C., pH 8, read-out: Human neutrophil elastase (hNE) IC50

T2 sequence (P00772 27-266): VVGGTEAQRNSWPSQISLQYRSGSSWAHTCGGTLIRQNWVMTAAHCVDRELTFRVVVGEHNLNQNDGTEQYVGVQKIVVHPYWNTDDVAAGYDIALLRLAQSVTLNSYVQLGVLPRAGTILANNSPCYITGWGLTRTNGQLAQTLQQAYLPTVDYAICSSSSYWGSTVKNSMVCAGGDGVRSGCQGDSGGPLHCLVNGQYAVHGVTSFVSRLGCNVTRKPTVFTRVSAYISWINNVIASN

SMILES | IC50 (human proteinase 3; [3]) [nM] | hNE/hPr3 selectivity (human proteinase 3) | IC50 [1, 4] [nM] | hNE/PPE selectivity [1] | IC50 [2, 5] [nM] | IC50 (human proteinase 3) [nM] | IC50 [1] [nM] | IC50 [2] [nM]
CC[C@H](C)[C@@H]1NC(=O)[C@H](CO)NC(=O)[C@H](C)NC(=O)[C@H]([C@@H](C)O)NC(=O)[C@H](CCC(=O)O)NC(=O)[C@H](CCCNC(=N)N)NC(=O)[C@@H]2CCCN2C(=O)[C@H]2CCCN2C(=O)[C@H]([C@@H](C)O)NC(=O)[C@H](CCCCN)NC(=O)[C@H](CCC(N)=O)NC(=O)[C@@H]2CCCN2C(=O)[C@@H]2CCCN2C1=O [Example 11, Cyclo(-Arg-Glu-Thr-Ala-Ser-Ile-Pro-Pro-Gln-Lys-Thr-^DPro-Pro-)] (cyclo(RETASIPPQKT[dP]P)) | > 100000 | >8000 | > 100000 | >8000 | 12.5 | – | – | –
CC[C@H](C)[C@@H]1NC(=O)[C@H](CO)NC(=O)[C@H](C)NC(=O)[C@H]([C@@H](C)O)NC(=O)[C@H](C(C)C)NC(=O)[C@H](CCCNC(=N)N)NC(=O)[C@@H]2CCCN2C(=O)[C@H]2CCCN2C(=O)[C@H]([C@@H](C)O)NC(=O)[C@H](CCCCN)NC(=O)[C@H](CCC(N)=O)NC(=O)[C@@H]2CCCN2C(=O)[C@@H]2CCCN2C1=O [Example 16, Cyclo(-Arg-Val-Thr-Ala-Ser-Ile-Pro-Pro-Gln-Lys-Thr-^DPro-Pro-)] (cyclo(RVTASIPPQKT[dP]P)) | > 100000 | >3788 | > 100000 | >3788 | 26.4 | – | – | –
CCCCCCCC[C@@H]1NC(=O)[C@@H]2CCCN2C(=O)[C@H]2CCCN2C(=O)[C@H](CO)NC(=O)[C@H](CCCCN)NC(=O)[C@H](CCC(N)=O)NC(=O)[C@@H]2CCCN2C(=O)[C@@H]2CCCN2C(=O)[C@H]([C@@H](C)CC)NC(=O)[C@H](CO)NC(=O)[C@H](C)NC(=O)[C@H]([C@@H](C)O)NC(=O)[C@H](CCC(=O)O)NC1=O [Example 3, Cyclo(-OctGly-Glu-Thr-Ala-Ser-Ile-Pro-Pro-Gln-Lys-Ser-^DPro-Pro-)] (cyclo([Gly(octyl)]ETASIPPQKS[dP]P)) | 1440 | 262 | 790 | 144 | 5.5 | – | – | –
CC[C@H](C)[C@@H]1NC(=O)[C@H](CO)NC(=O)[C@H](C)NC(=O)[C@H]([C@@H](C)O)NC(=O)[C@H](CCC(=O)O)NC(=O)[C@H](CCCNC(=N)N)NC(=O)[C@@H]2CCCN2C(=O)[C@H]2CCCN2C(=O)[C@H]([C@@H](C)O)NC(=O)[C@H](CCCCN)NC(=O)[C@H](Cc2ccc(O)cc2)NC(=O)[C@@H]2CCCN2C(=O)[C@@H]2CCCN2C1=O [Example 13, Cyclo(-Arg-Glu-Thr-Ala-Ser-Ile-Pro-Pro-Tyr-Lys-Thr-^DPro-Pro-)] (cyclo(RETASIPPYKT[dP]P)) | > 100000 | >3268 | > 100000 | >3268 | 30.6 | – | – | –
CC[C@H](C)[C@@H]1NC(=O)[C@H](CO)NC(=O)[C@H](C)NC(=O)[C@H]([C@@H](C)O)NC(=O)[C@H](CCC(=O)O)NC(=O)[C@H](CCC(=O)NCCc2ccccc2)NC(=O)[C@@H]2CCCN2C(=O)[C@H]2CCCN2C(=O)[C@H](Cc2ccc(O)cc2)NC(=O)[C@H](CCCCN)NC(=O)[C@H](CCC(N)=O)NC(=O)[C@@H]2CCCN2C(=O)[C@@H]2CCCN2C1=O [Example 15, Cyclo(-Glu(Phenethyl)-Glu-Thr-Ala-Ser-Ile-Pro-Pro-Gln-Lys-Tyr-^DPro-Pro-)] (cyclo(E(NHPhenethyl)ETASIPPQKY[dP]P)) | – | 360 | – | 87 | – | 6690 | 1620 | 18.6
C=CC[C@@H]1NC(=O)[C@H]([C@@H](C)O)NC(=O)[C@H](CCC(=O)O)NC(=O)[C@H](CCCNC(=N)N)NC(=O)[C@@H]2CCCN2C(=O)[C@H]2CCCN2C(=O)[C@H]([C@@H](C)O)NC(=O)[C@H](CCCCN)NC(=O)[C@H](CCC(N)=O)NC(=O)[C@@H]2CCCN2C(=O)[C@@H]2CCCN2C(=O)[C@H]([C@@H](C)CC)NC(=O)[C@H](CO)NC1=O [Example 7, Cyclo(-Arg-Glu-Thr-AllylGly-Ser-Ile-Pro-Pro-Gln-Lys-Thr-^DPro-Pro-)] (cyclo(RET[AllylGly]SIPPQKT[dP]P)) | 80200 | 5383 | 59000 | 3960 | 14.9 | – | – | –
CCCC[C@@H]1NC(=O)[C@H](CCCNC(=N)N)NC(=O)[C@@H]2CCCN2C(=O)[C@H]2CCCN2C(=O)[C@H](Cc2ccc(O)cc2)NC(=O)[C@H](CCCCN)NC(=O)[C@H](CCC(N)=O)NC(=O)[C@@H]2CCCN2C(=O)[C@@H]2CCCN2C(=O)[C@H]([C@@H](C)CC)NC(=O)[C@H](CO)NC(=O)[C@H](C)NC(=O)[C@H]([C@@H](C)O)NC1=O [Example 6, Cyclo(-Arg-Nle-Thr-Ala-Ser-Ile-Pro-Pro-Gln-Lys-Tyr-^DPro-Pro-)] (cyclo(R[Nle]TASIPPQKY[dP]P)) | 2370 | 153 | 2690 | 174 | 15.5 | – | – | –
CC[C@H](C)[C@@H]1NC(=O)[C@H](CO)NC(=O)[C@H](C)NC(=O)[C@H]([C@@H](C)O)NC(=O)[C@H](CCC(=O)O)NC(=O)[C@H](CCCNC(=N)N)NC(=O)[C@@H]2CCCN2C(=O)[C@H]2CCCN2C(=O)[C@H](CCC(C)C)NC(=O)[C@H](CCCCN)NC(=O)[C@H](CCC(N)=O)NC(=O)[C@@H]2CCCN2C(=O)[C@@H]2CCCN2C1=O [Example 10, Cyclo(-Arg-Glu-Thr-Ala-Ser-Ile-Pro-Pro-Gln-Lys-hLeu-^DPro-Pro-)] (cyclo(RETASIPPQK[hLeu][dP]P)) | > 100000 | >3333 | > 100000 | >3333 | 30 | – | – | –
CC[C@H](C)[C@@H]1NC(=O)[C@H](CO)NC(=O)[C@H](C)NC(=O)[C@H]([C@@H](C)O)NC(=O)[C@H](CCc2ccc(O)cc2)NC(=O)[C@H](CCCNC(=N)N)NC(=O)[C@@H]2CCCN2C(=O)[C@H]2CCCN2C(=O)[C@H](Cc2ccc(O)cc2)NC(=O)[C@H](CCCCN)NC(=O)[C@H](CCC(N)=O)NC(=O)[C@@H]2CCCN2C(=O)[C@@H]2CCCN2C1=O [Example 5, Cyclo(-Arg-hTyr-Thr-Ala-Ser-Ile-Pro-Pro-Gln-Lys-Tyr-^DPro-Pro-)] (cyclo(R[hTyr]TASIPPQKY[dP]P)) | 1710 | 135 | 1750 | 138 | 12.7 | – | – | –
CCCCCCCC[C@@H]1NC(=O)[C@@H]2CCCN2C(=O)[C@H]2CCCN2C(=O)[C@H]([C@@H](C)O)NC(=O)[C@H](CCCCN)NC(=O)[C@H](CCC(N)=O)NC(=O)[C@@H]2CCCN2C(=O)[C@@H]2CCCN2C(=O)[C@H]([C@@H](C)CC)NC(=O)[C@H](CO)NC(=O)[C@H](C)NC(=O)[C@H]([C@@H](C)O)NC(=O)[C@H](CCC(=O)O)NC1=O [Example 4, Cyclo(-OctGly-Glu-Thr-Ala-Ser-Ile-Pro-Pro-Gln-Lys-Thr-^DPro-Pro-)] (cyclo([Gly(octyl)]ETASIPPQKT[dP]P)) | 2150 | 272 | 2750 | 348 | 7.9 | – | – | –
